How the values were obtained:
[1] = system: SDMA signal (PRMT5 inhibition) in HCT116 MTAP-deleted cells; experiment: Symmetric di-methyl arginine image-based high content screen assay (SDMA assay), HCT116 MTAP-deleted; format: cell-based; details: SDMA assay; for EC50: Homo sapiens, HCT-116, 72 h, 3 days of treatment, cell line not given, taken as HCT116 MTAP-deleted, read-out: EC50 (SDMA assay)
Procedure, shortened: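 HCT116 MTAP-deleted cells treated with compound until Day 3, then formalin-fixed, permeabilized and immunostained for SDMA, with DAPI nuclear counterstain. Imaged by high-content microscopy; SDMA read-out is mean Alexa 488 intensity per DAPI-defined cell, reflecting PRMT5 inhibition.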

[2] = system: HCT116 MTAP-deleted cells; experiment: Cell viability assay (CellTiter-Glo, 7 days), HCT116 MTAP-deleted; details: Homo sapiens, HCT-116, 168 h
[3] = taken as HCT116 WT versus MTAP-deleted
[4] = taken as HCT116 WT vs MTAP-deleted

Row | Compound | EC50 [1] | EC50 selectivity (SDMA assay) [1, 3] | EC50 selectivity (SDMA assay) [1, 4] | CC50 [2]
1 | COCC(=O)N(C)N(Cc1ccc(C(F)(F)F)cn1)C(=O)c1cc2c(cc1F)nc(N)c1cnn(C)c12 [Example 386, 4-amino-7-fluoro-N′-(2-methoxyacetyl)-N′,1-dimethyl-N-[[5-(trifluoromethyl)-2-pyridyl]methyl]pyrazolo[4,3-c]quinoline-8-carbohydrazide] | 1 to 5 nM | 20 | – | < 100 nM
2 | Cn1ncc2c(N)nc3ccc(C(=O)N(Cc4ccc(C(F)(F)F)nc4)N4CCCC4=O)cc3c21 [Example 392, 4-amino-1-methyl-N-(2-oxopyrrolidin-1-yl)-N-[[6-(trifluoromethyl)-3-pyridyl]methyl]pyrazolo[4,3-c]quinoline-8-carboxamide] | 1 to 5 nM | 285 | – | < 100 nM
3 | CN(C(=O)C1CC1)N(Cc1ccc(C(F)(F)F)nc1)C(=O)c1ccc2nc(N)c3cnn(C)c3c2c1 [Example 393, 4-amino-N′-(cyclopropanecarbonyl)-N′,1-dimethyl-N-[[6-(trifluoromethyl)-3-pyridyl]methyl]pyrazolo[4,3-c]quinoline-8-carbohydrazide] | 1 to 5 nM | 380 | – | < 100 nM
4 | COCCN(C)N(Cc1ccc(C(F)(F)F)cc1F)C(=O)c1cc2c(cc1F)nc(N)c1cnn(C)c12 [Example 395, 4-amino-7-fluoro-N-(2-fluoro-4-(trifluoromethyl)benzyl)-N′-(2-methoxyethyl)-N′,1-dimethyl-1H-pyrazolo[4,3-c]quinoline-8-carbohydrazide] | 1 to 5 nM | 33 | – | < 100 nM
5 | COCCN(C)N(Cc1ccc(C(F)(F)F)cc1F)C(=O)c1ccc2nc(N)c3cnn(C)c3c2c1 [Example 396, 4-amino-N-[[2-fluoro-4-(trifluoromethyl)phenyl]methyl]-N′-(2-methoxyethyl)-N′,1-dimethyl-pyrazolo[4,3-c]quinoline-8-carbohydrazide] | 1 to 5 nM | – | 135 | < 100 nM
6 | Cn1ncc2c(N)nc3ccc(C(=O)N(Cc4ccc(C(F)(F)F)cc4F)N4CCOCC4)cc3c21 [Example 397, 4-amino-N-[[2-fluoro-4-(trifluoromethyl)phenyl]methyl]-1-methyl-N-morpholino-pyrazolo[4,3-c]quinoline-8-carboxamide] | 1 to 5 nM | – | 78 | < 100 nM
7 | Cn1ncc2c(N)nc3cc(F)c(C(=O)N(Cc4ccc(C(F)(F)F)cc4F)N4CCOCC4)cc3c21 [Example 398, 4-amino-7-fluoro-N-[[2-fluoro-4-(trifluoromethyl)phenyl]methyl]-1-methyl-N-morpholino-pyrazolo[4,3-c]quinoline-8-carboxamide] | 1 to 5 nM | – | 31 | < 100 nM
8 | CN(C(=O)CC1CC1)N(Cc1ccc(C(F)(F)F)cn1)C(=O)c1ccc2nc(N)c3cnn(C)c3c2c1 [Example 399, 4-amino-N′-(2-cyclopropylacetyl)-N′,1-dimethyl-N-[[5-(trifluoromethyl)-2-pyridyl]methyl]pyrazolo[4,3-c]quinoline-8-carbohydrazide] | 1 to 5 nM | – | 358 | < 100 nM
9 | CC(=O)N(C)N(Cc1cc2cc(Cl)ccn2n1)C(=O)c1ccc2nc(N)c3cnn(C)c3c2c1 [Example 400, N′-acetyl-4-amino-N-((5-chloropyrazolo[1,5-a]pyridin-2-yl)methyl)-N′,1-dimethyl-1H-pyrazolo[4,3-c]quinoline-8-carbohydrazide] | < 1 nM | – | 278 | < 100 nM
10 | CC(=O)N(C)N(Cc1cc2cc(C(F)(F)F)ccn2n1)C(=O)c1ccc2nc(N)c3cnn(C)c3c2c1 [Example 402, N′-acetyl-4-amino-N′,1-dimethyl-N-((5-(trifluoromethyl)pyrazolo[1,5-a]pyridin-2-yl)methyl)-1H-pyrazolo[4,3-c]quinoline-8-carbohydrazide] | < 1 nM | – | 311 | < 100 nM
11 | CC(NN(Cc1ccc(C(F)(F)F)cn1)C(=O)c1ccc2nc(N)c3cnn(C)c3c2c1)C(F)(F)F (stereo not drawn) [Example 405, 4-amino-1-methyl-N-((5-(trifluoromethyl)pyridin-2-yl)methyl)-N′-(1,1,1-trifluoropropan-2-yl)-1H-pyrazolo[4,3-c]quinoline-8-carbohydrazide] | < 1 nM | – | 154 | < 100 nM
12 | CC(=O)N(C)N(Cc1c(F)cc(C(F)(F)F)cc1F)C(=O)c1ccc2nc(N)c3cnn(C)c3c2c1 [Example 415, N′-acetyl-4-amino-N-(2,6-difluoro-4-(trifluoromethyl)benzyl)-N′,1-dimethyl-1H-pyrazolo[4,3-c]quinoline-8-carbohydrazide] | < 1 nM | – | 26 | < 100 nM
13 | CC(=O)N(C)N(Cc1cc2c(C(F)(F)F)cccc2s1)C(=O)c1ccc2nc(N)c3cnn(C)c3c2c1 [Example 418, N′-acetyl-4-amino-N′,1-dimethyl-N-((4-(trifluoromethyl)benzo[b]thiophen-2-yl)methyl)-1H-pyrazolo[4,3-c]quinoline-8-carbohydrazide] | 1 to 5 nM | – | 114 | < 100 nM
14 | CC(=O)N(C)N(Cc1cc2cccc(C(F)(F)F)c2s1)C(=O)c1ccc2nc(N)c3cnn(C)c3c2c1 [Example 419, N′-acetyl-4-amino-N′,1-dimethyl-N-((7-(trifluoromethyl)benzo[b]thiophen-2-yl)methyl)-1H-pyrazolo[4,3-c]quinoline-8-carbohydrazide] | 1 to 5 nM | – | 118 | < 100 nM
15 | Cn1ncc2c(N)nc3ccc(C(=O)N(Cc4nc5cc(C(F)(F)F)ccc5n4C)N4CCCC4=O)cc3c21 [Example 420, 4-amino-1-methyl-N-((1-methyl-5-(trifluoromethyl)-1H-benzo[d]imidazol-2-yl)methyl)-N-(2-oxopyrrolidin-1-yl)-1H-pyrazolo[4,3-c]quinoline-8-carboxamide] | < 1 nM | – | 87 | < 100 nM

Continued, in another order:

Row | EC50 [1] | EC50 selectivity (SDMA assay) [1, 3] | EC50 selectivity (SDMA assay) [1, 4] | Compound | CC50 [2]
16 | 1 to 5 nM | 44 | – | CC(=O)N(C)N(Cc1ccc(C#CC2CCCO2)cc1F)C(=O)c1ccc2nc(N)c3cnn(C)c3c2c1 (stereo not drawn) [Example 387, N′-acetyl-4-amino-N-[[2-fluoro-4-(2-tetrahydrofuran-2-ylethynyl)phenyl]methyl]-N′,1-dimethyl-pyrazolo[4,3-c]quinoline-8-carbohydrazide] | < 100 nM
17 | < 1 nM | 40 | – | CC(=O)N(C)N(Cc1ccc(C#CC2CCOC2)cc1F)C(=O)c1ccc2nc(N)c3cnn(C)c3c2c1 (stereo not drawn) [Example 388, N′-acetyl-4-amino-N-[[2-fluoro-4-(2-tetrahydrofuran-3-ylethynyl)phenyl]methyl]-N′,1-dimethyl-pyrazolo[4,3-c]quinoline-8-carbohydrazide] | < 100 nM
18 | 1 to 5 nM | 31 | – | CC(=O)N(C)N(Cc1ccc(C#CC(C)(C)O)cc1F)C(=O)c1ccc2nc(N)c3cnn(C)c3c2c1 [Example 389, N′-acetyl-4-amino-N-[[2-fluoro-4-(3-hydroxy-3-methyl-but-1-ynyl)phenyl]methyl]-N′,1-dimethyl-pyrazolo[4,3-c]quinoline-8-carbohydrazide] | < 100 nM
19 | 1 to 5 nM | 27 | – | CC(=O)N(C)N(Cc1ccc(C#CC23CC(C2)C3)cc1F)C(=O)c1ccc2nc(N)c3cnn(C)c3c2c1 [Example 390, N′-acetyl-4-amino-N-[[4-[2-(1-bicyclo[1.1.1]pentanyl)ethynyl]-2-fluoro-phenyl]methyl]-N′,1-dimethyl-pyrazolo[4,3-c]quinoline-8-carbohydrazide] | < 100 nM
20 | 1 to 5 nM | 64 | – | CN(C(=O)C1CC1)N(Cc1ccc(C#CC2CCCO2)cc1F)C(=O)c1ccc2nc(N)c3cnn(C)c3c2c1 (stereo not drawn) [Example 391, 4-amino-N′-(cyclopropanecarbonyl)-N-(2-fluoro-4-((tetrahydrofuran-2-yl)ethynyl)benzyl)-N′,1-dimethyl-1H-pyrazolo[4,3-c]quinoline-8-carbohydrazide] | < 100 nM
21 | < 1 nM | – | 476 | CC(=O)N(C)N(Cc1cc2ccc(Cl)cn2n1)C(=O)c1ccc2nc(N)c3cnn(C)c3c2c1 [Example 403, N′-acetyl-4-amino-N-((6-chloropyrazolo[1,5-a]pyridin-2-yl)methyl)-N′,1-dimethyl-1H-pyrazolo[4,3-c]quinoline-8-carbohydrazide] | < 100 nM
22 | < 1 nM | – | 212 | CC(=O)N(C)N(Cc1ccc(C#N)cc1Cl)C(=O)c1ccc2nc(N)c3cnn(C)c3c2c1 [Example 406, N′-acetyl-4-amino-N-(2-chloro-4-cyanobenzyl)-N′,1-dimethyl-1H-pyrazolo[4,3-c]quinoline-8-carbohydrazide] | < 100 nM
23 | < 1 nM | – | 497 | CC(=O)N(C)N(Cc1c(F)cc(F)cc1F)C(=O)c1ccc2nc(N)c3cnn(C)c3c2c1 [Example 413, N′-acetyl-4-amino-N′,1-dimethyl-N-(2,4,6-trifluorobenzyl)-1H-pyrazolo[4,3-c]quinoline-8-carbohydrazide] | < 100 nM
24 | 1 to 5 nM | – | 133 | CC(=O)N(C)N(Cc1ccc(C(F)(F)F)nc1C)C(=O)c1ccc2nc(N)c3cnn(C)c3c2c1 [Example 416, N′-acetyl-4-amino-N′,1-dimethyl-N-((2-methyl-6-(trifluoromethyl)pyridin-3-yl)methyl)-1H-pyrazolo[4,3-c]quinoline-8-carbohydrazide] | < 100 nM

From patent publication US20240254118A1, “PRMT5 INHIBITORS AND USES THEREOF” (Gilead Sciences, Inc., priority 2022, published 2024)
